# Legend:
# [1] = target: T1, His-DNMT1 (182 kDa, human) (Homo sapiens, UniProt P26358); test: hDNMT1 assay ([methyl-3H] SAM Flashplate); type: biochemical; conditions: read-out: hDNMT1 percentage of inhibition
# T1 construct: His; made in house
# Description: His-DNMT1 (182 kDa, human) was cloned, expressed and purified as described in the literature (Halby et al. ChemBioChem 2012, 13, 157-165). The reaction was performed in a […] total reaction volume in low volume NBS™ 384-well microplates (Corning), containing the tested compound (up to 1% DMSO), 1 μM of a SAM/[methyl-^3H] SAM (3 TBq/mmol, PerkinElmer) mix in a ratio of 3-to-1 (isotopic dilution 1*:3), 0.3 μM of biotinylated hemimethylated DNA duplex (5′-GATmCGCmCGATGmCGmCGAATmCGmCGATmCGATGmCGAT-3′ and BIOT-5′-[…]-3′), and 90 nM of DNMT1 in methylation buffer (20 mM HEPES pH 7.2, 1 mM EDTA, 50 mM KCl, 25 μg/mL BSA). The reaction was incubated at 37° C. for 2 hours. 8 μL, are then transferred into a streptavidin 96-well scintillant coated Flashplate™ (PerkinElmer) containing 190 μL of 20 μM SAH in 50 mM Tris-HCl pH 7.4. The Flashplate™ was agitated at room temperature for 1 hour and read in 200 μL of 50 mM Tris-HCl pH 7.4 on TopCount NXT (PerkinElmer). The percentage of inhibition is reported. The formula used to calculate the percentage of inhibition is [(X−Y)/X]×100, where X is the signal determined in the absence of the inhibitor and Y is the signal obtained in the presence of the inhibitor.
# [2] = test system: CMV promoter in KG-1 Luc cells; test: CMV promoter analysis by NOMe-Seq: DNA methylation and nucleosome occupancy; type: cell-based, human; conditions: at 5 μM, 24 h
# Description: Using the Nucleosome Occupancy and Methylome Sequencing (NOMe-Seq) technique, the methylation status of the CMV promoter and the position of the nucleosomes on such promoter were both analysed.
# NOMe-seq is a modified version of the methylation-dependent single promoter assay described by Miranda et al. (Curr Protoc Mol Biol. 2010 21.17.1-16) and the methylase-based DNA assay was performed as previously described with minor modifications (Hochedlinger K, Plath K 2009; Sharma et al. 2010, You et al. 2011, Kelly et al. 2012). After nuclei extraction, GpC methyltransferase (M.CviPI; New England Biolabs) reactions were done in M.CviPI reaction buffer. GpC methyltransferase treatment was followed by DNA extraction, sodium bisulfite conversion, PCR amplification of the region of interest, cloning, and sequencing of individual clones to reveal the structure of single replicas as functional units. After treatment with the compounds or with DMSO, KG-1 Luc cells were centrifuged for 5 min at 500×g. Cell pellets were washed in ice-cold PBS, resuspended in 1 mL of ice-cold nuclei buffer [10 mM Tris (pH 7.4), 10 mM NaCl, 3 mM MgCl2, 0.1 mM EDTA, and 0.5% Nonidet P-40, plus protease inhibitors] per 2×10^6 cells, and incubated on ice for 10 min. […]
# T1 sequence (P26358 whole entry): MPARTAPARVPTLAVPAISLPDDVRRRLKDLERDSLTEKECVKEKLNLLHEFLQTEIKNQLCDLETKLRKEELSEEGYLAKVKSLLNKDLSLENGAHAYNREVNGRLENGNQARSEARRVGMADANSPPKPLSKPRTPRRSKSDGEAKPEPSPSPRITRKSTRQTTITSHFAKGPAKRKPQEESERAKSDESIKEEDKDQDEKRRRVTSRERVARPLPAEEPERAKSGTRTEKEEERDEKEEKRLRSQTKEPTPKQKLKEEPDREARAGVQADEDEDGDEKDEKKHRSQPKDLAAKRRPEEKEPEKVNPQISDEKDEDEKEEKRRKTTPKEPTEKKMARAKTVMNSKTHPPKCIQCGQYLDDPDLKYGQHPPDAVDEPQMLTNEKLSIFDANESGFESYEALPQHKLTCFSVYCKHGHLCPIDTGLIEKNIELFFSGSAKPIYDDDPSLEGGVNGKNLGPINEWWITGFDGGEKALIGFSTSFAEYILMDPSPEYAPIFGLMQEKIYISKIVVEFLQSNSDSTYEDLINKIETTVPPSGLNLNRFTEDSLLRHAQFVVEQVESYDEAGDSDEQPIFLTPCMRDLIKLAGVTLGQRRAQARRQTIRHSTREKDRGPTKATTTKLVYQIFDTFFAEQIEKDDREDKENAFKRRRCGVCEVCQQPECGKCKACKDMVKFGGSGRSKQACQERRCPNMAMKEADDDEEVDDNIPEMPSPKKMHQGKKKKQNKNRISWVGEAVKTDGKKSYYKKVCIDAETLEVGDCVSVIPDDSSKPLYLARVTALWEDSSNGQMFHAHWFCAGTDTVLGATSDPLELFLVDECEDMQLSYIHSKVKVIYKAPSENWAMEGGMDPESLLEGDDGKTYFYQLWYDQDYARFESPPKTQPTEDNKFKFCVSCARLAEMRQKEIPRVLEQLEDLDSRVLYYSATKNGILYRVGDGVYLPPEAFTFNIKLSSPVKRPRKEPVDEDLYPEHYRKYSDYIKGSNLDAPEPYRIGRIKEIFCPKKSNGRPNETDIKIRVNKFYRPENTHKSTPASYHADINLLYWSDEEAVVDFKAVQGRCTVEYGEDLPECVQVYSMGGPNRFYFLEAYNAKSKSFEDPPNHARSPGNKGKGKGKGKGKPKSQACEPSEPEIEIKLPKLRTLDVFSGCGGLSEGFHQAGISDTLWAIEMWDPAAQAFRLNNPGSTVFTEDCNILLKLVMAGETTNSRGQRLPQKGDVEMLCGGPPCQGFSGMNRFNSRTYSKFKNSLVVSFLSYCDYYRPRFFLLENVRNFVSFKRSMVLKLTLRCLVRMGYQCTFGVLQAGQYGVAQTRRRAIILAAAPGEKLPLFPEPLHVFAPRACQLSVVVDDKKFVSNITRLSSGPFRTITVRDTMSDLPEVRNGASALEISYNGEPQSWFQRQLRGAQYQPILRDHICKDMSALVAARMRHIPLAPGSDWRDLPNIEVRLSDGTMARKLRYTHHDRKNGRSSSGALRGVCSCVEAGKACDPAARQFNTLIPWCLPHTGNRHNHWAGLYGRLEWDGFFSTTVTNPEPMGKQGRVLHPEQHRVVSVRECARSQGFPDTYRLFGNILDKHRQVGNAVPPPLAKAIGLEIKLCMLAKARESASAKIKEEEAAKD
smiles,measurement,setting,value
"COc1ccc2cc1Oc1ccc(cc1)C[C@@H]1NCCc3cc(OC)c4c(c31)Oc1cc3c(cc1O4)CCN(C)[C@H]3C2 [Compound 1, Trilobine]",inhibition at 32 µM,[1],50%
same,"Chromatin accessibility, KG1 CMV-Luc model",[2],1.9 ± 0.1
same,"DNA demethylation, KG1 CMV-Luc model",[2],−37 ± 8%

# — patent US10517863B2, “Trilobine and its natural analogs for use as a drug” (PIERRE FABRE MEDICAMENT, priority 2015, dated 2019)
